Results on 22 compounds are retold here after patent US20260152498A1, “4,5,6,7-TETRAHYDRO-1H-PYRAZOLO[4,3-c]PYRIDINE COMPOUNDS AND DERIVATIVES AS USP1 INHIBITORS” (EXELIXIS, INC., priority 2022, published 2026).

For test [1], the target named is T1, USP1-UAF1 complex (Homo sapiens, UniProt O94782). Nature of the test: biochemical.
Description: (§1) Biochemical Assay: The compounds were evaluated for their potential to inhibit USP1-UAF1 complex (Boston Biochem, Catalog: E568-050) using a fluorescence-based assay. The final concentrations of USP1-UAF1 complex protein and substrate Ubiquitin-Rhodamine-110 (R&D systems, Catalog U-555-050) used in the assay were 0.45 and 150 nM respectively. 50 mM HEPES pH. 7.5, 100 mM NaCl, 0.5 mM EDTA, 1 mM TCEP, 10% BSA, 0.01% Tween 20 buffer was used in the assay. The total assay volume was 20 μL. […] The final DMSO concentration in the assay was 1%. The compounds were pre-incubated with USP1-UAF1 complex at 25° C. for 15 min. After preincubation, required concentration of substrate was added and incubated at 25° C. for 60 min. Fluorescence at Excitation: 485 nm, Emission: 535 nm was measured in Victor-5 from Perkin Elmer.
(§2) To determine IC50 values, dose response curves were generated by plotting percentage inhibition as a function of inhibitor concentration and the data was fitted to sigmoidal non-linear regression equation (variable slope) using Graph Pad prism software V8.
(§3) The compounds were screened by the above-mentioned assay procedure.
Test [2] addresses T1, USP1-UAF1 complex. As to conditions: 1.2 µM.
Description: as §1, §2, §3

For orientation: IC50 means the midpoint of a concentration-inhibition curve. As a reminder, the inhibition is the share of the control response that was lost under treatment.

Some results are limits rather than exact numbers.

T1 sequence (O94782 whole entry): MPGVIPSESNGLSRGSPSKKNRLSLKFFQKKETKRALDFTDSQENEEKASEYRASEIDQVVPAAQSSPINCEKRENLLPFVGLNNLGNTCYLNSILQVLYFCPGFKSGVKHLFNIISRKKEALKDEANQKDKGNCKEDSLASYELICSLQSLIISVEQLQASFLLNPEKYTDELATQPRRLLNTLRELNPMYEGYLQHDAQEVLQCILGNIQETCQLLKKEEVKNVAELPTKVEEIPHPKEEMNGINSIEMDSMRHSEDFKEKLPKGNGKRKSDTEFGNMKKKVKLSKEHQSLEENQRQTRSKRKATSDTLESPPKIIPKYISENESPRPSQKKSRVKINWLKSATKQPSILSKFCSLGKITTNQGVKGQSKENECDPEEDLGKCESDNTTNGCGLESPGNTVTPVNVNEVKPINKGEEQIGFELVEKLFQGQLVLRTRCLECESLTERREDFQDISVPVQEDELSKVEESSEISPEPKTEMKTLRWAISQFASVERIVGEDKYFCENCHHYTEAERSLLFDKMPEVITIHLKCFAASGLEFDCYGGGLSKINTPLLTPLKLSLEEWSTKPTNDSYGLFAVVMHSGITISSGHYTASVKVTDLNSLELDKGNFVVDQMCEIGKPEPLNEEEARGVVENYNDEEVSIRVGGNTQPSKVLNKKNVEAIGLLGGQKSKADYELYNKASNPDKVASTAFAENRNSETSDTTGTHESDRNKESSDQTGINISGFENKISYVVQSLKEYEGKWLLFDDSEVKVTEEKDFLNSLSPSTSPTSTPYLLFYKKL
T1 sequence (Q8TAF3 whole entry partner): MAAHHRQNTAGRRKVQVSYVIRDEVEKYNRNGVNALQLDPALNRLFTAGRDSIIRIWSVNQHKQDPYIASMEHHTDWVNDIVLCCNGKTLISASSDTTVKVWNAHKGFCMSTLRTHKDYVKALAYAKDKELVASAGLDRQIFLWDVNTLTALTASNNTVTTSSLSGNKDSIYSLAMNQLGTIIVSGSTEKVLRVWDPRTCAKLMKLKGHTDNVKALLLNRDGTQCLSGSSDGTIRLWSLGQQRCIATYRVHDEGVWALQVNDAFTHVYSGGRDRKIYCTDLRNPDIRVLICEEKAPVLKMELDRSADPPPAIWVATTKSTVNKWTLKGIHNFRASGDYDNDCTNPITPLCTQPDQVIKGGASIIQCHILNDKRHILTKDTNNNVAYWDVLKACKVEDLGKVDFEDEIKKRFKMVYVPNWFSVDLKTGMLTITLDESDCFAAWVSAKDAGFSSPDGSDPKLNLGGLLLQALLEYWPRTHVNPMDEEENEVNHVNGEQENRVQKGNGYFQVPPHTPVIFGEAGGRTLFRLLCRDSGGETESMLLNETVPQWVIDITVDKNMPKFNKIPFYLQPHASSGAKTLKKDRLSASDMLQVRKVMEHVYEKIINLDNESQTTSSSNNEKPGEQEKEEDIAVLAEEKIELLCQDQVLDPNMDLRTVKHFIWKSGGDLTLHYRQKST

The compound `CCn1nc(-c2c(OC)ncnc2C2CC2)c2c1CCN(c1ccc(-c3nc(C(F)(F)F)cn3C)nc1)C2` [Compound 25, 3-(4-cyclopropyl-6-methoxypyrimidin-5-yl)-1-ethyl-5-(6-(1-methyl-4-(trifluoromethyl)-1H-imidazol-2-yl)pyridin-3-yl)-4,5,6,7-tetrahydro-1H-pyrazolo[4,3-c]pyridine] displayed an IC50 in test [1] above 100 nM. This compound also registered an inhibition in test [2] of 92%.

In turn, `CCn1nc(-c2c(OC)ncnc2C2CC2)c2c1CCN(c1ccc(-c3nc(C(F)(F)F)cn3C)cn1)C2` [Compound 26, 3-(4-cyclopropyl-6-methoxypyrimidin-5-yl)-1-ethyl-5-(5-(1-methyl-4-(trifluoromethyl)-1H-imidazol-2-yl)pyridin-2-yl)-4,5,6,7-tetrahydro-1H-pyrazolo[4,3-c]pyridine] had an IC50 in test [1] above 100 nM. Moreover, the inhibition in test [2] amounted to 90%.

Compound `COc1ncnc(C2CC2)c1-c1nn(C(C)C)c2c1CN(c1ccc(-c3nc(C(F)(F)F)cn3C)cc1)CC2` [Compound 27, 3-(4-cyclopropyl-6-methoxypyrimidin-5-yl)-1-isopropyl-5-(4-(1-methyl-4-(trifluoromethyl)-1H-imidazol-2-yl)phenyl)-4,5,6,7-tetrahydro-1H-pyrazolo[4,3-c]pyridine] returned an IC50 in test [1] below 50 nM. This compound also came in with an inhibition in test [2] of 98%.

In the case of `COc1ncnc(C2CC2)c1-c1nn(C(C)C)c2c1CN(c1ccc(-c3nc(C(F)(F)F)cn3C)nc1)CC2` [Compound 28, 3-(4-cyclopropyl-6-methoxypyrimidin-5-yl)-1-isopropyl-5-(6-(1-methyl-4-(trifluoromethyl)-1H-imidazol-2-yl)pyridin-3-yl)-4,5,6,7-tetrahydro-1H-pyrazolo[4,3-c]pyridine], the IC50 in test [1] is above 100 nM. Moreover, the inhibition in test [2] came to 90%.

In test [1], `COc1ncnc(C2CC2)c1-c1nn(C(C)C)c2c1CN(c1ccc(-c3nc(C(F)(F)F)cn3C)cn1)CC2` [Compound 29, 3-(4-cyclopropyl-6-methoxypyrimidin-5-yl)-1-isopropyl-5-(5-(1-methyl-4-(trifluoromethyl)-1H-imidazol-2-yl)pyridin-2-yl)-4,5,6,7-tetrahydro-1H-pyrazolo[4,3-c]pyridine] showed an IC50 above 100 nM. This compound also yielded an inhibition in test [2] of 90%.

As to `COc1ncnc(C2CC2)c1-c1nn(C2CC2)c2c1CN(c1ccc(-c3nc(C(F)(F)F)cn3C)cc1)CC2` [Compound 30, 1-cyclopropyl-3-(4-cyclopropyl-6-methoxypyrimidin-5-yl)-5-(4-(1-methyl-4-(trifluoromethyl)-1H-imidazol-2-yl)phenyl)-4,5,6,7-tetrahydro-1H-pyrazolo[4,3-c]pyridine], the IC50 in test [1] is below 50 nM. Also, the inhibition in test [2] worked out at 98%.

In test [1], `COc1ncnc(C2CC2)c1-c1nn(C2CC2)c2c1CN(c1ccc(-c3nc(C(F)(F)F)cn3C)nc1)CC2` [Compound 31, 1-cyclopropyl-3-(4-cyclopropyl-6-methoxypyrimidin-5-yl)-5-(6-(1-methyl-4-(trifluoromethyl)-1H-imidazol-2-yl)pyridin-3-yl)-4,5,6,7-tetrahydro-1H-pyrazolo[4,3-c]pyridine] had an IC50 above 100 nM. This compound also registered an inhibition in test [2] of 86%.

In test [1], `COc1ncnc(C2CC2)c1-c1nn(C2CC2)c2c1CN(c1ccc(-c3nc(C(F)(F)F)cn3C)cn1)CC2` [Compound 32, 1-cyclopropyl-3-(4-cyclopropyl-6-methoxypyrimidin-5-yl)-5-(5-(1-methyl-4-(trifluoromethyl)-1H-imidazol-2-yl)pyridin-2-yl)-4,5,6,7-tetrahydro-1H-pyrazolo[4,3-c]pyridine] registered an IC50 above 100 nM. In test [2], the inhibition was found to be 89%.

The compound `COc1ncnc(C2CC2)c1-c1nn(C2CCC2)c2c1CN(c1ccc(-c3nc(C(F)(F)F)cn3C)cc1)CC2` [Compound 33, 1-cyclobutyl-3-(4-cyclopropyl-6-methoxypyrimidin-5-yl)-5-(4-(1-methyl-4-(trifluoromethyl)-1H-imidazol-2-yl)phenyl)-4,5,6,7-tetrahydro-1 H-pyrazolo[4,3-c]pyridine] yielded an IC50 in test [1] of 50 to 100 nM. This compound yielded an inhibition in test [2] of 90%.

Regarding `COc1ncnc(C2CC2)c1-c1nn(C2CCC2)c2c1CN(c1ccc(-c3nc(C(F)(F)F)cn3C)nc1)CC2` [Compound 34, 1-cyclobutyl-3-(4-cyclopropyl-6-methoxypyrimidin-5-yl)-5-(6-(1-methyl-4-(trifluoromethyl)-1H-imidazol-2-yl)pyridin-3-yl)-4,5,6,7-tetrahydro-1H-pyrazolo[4,3-c]pyridine], the IC50 in test [1] is above 100 nM. This compound returned an inhibition in test [2] of 75%.

`COc1ncnc(C2CC2)c1-c1nn(C2CCC2)c2c1CN(c1ccc(-c3nc(C(F)(F)F)cn3C)cn1)CC2` [Compound 35, 1-cyclobutyl-3-(4-cyclopropyl-6-methoxypyrimidin-5-yl)-5-(5-(1-methyl-4-(trifluoromethyl)-1H-imidazol-2-yl)pyridin-2-yl)-4,5,6,7-tetrahydro-1H-pyrazolo[4,3-c]pyridine] registered an IC50 in test [1] above 100 nM. The compound further registered an inhibition in test [2] of 76%.

On to `COc1ncnc(C2CC2)c1-c1nn(Cc2ccccc2)c2c1CN(c1ccc(-c3nc(C(F)(F)F)cn3C)cc1)CC2` [Compound 36, 1-benzyl-3-(4-cyclopropyl-6-methoxypyrimidin-5-yl)-5-(4-(1-methyl-4-(trifluoromethyl)-1H-imidazol-2-yl)phenyl)-4,5,6,7-tetrahydro-1H-pyrazolo[4,3-c]pyridine], for which, in test [1], the IC50 was below 50 nM. For the same compound, the inhibition in test [2] turned out to be 99%.

For the compound `COc1ncnc(C2CC2)c1-c1nn(Cc2ccccc2)c2c1CN(c1ccc(-c3nc(C(F)(F)F)cn3C)cn1)CC2` [Compound 37, 1-benzyl-3-(4-cyclopropyl-6-methoxypyrimidin-5-yl)-5-(5-(1-methyl-4-(trifluoromethyl)-1H-imidazol-2-yl)pyridin-2-yl)-4,5,6,7-tetrahydro-1H-pyrazolo[4,3-c]pyridine], the IC50 in test [1] was 50 to 100 nM. This compound returned an inhibition in test [2] of 98%.

On to `COc1ncnc(C2CC2)c1-c1nn(C)c2c1CN(c1ccc(-c3nc(C(F)(F)F)cn3C)cc1)CC2C` (centres unmarked) [Compound 38, 3-(4-cyclopropyl-6-methoxypyrimidin-5-yl)-1,7-dimethyl-5-(4-(1-methyl-4-(trifluoromethyl)-1H-imidazol-2-yl)phenyl)-4,5,6,7-tetrahydro-1H-pyrazolo[4,3-c]pyridine], for which the IC50 in test [1] is below 50 nM. Further, in test [2], the inhibition was 99%.

In turn, `COc1ncnc(C2CC2)c1-c1nn(C)c2c1CN(c1ccc(-c3nc(C(F)(F)F)cn3C)nc1)CC2C` (centres unmarked) [Compound 39, 3-(4-cyclopropyl-6-methoxypyrimidin-5-yl)-1,7-dimethyl-5-(6-(1-methyl-4-(trifluoromethyl)-1H-imidazol-2-yl)pyridin-3-yl)-4,5,6,7-tetrahydro-1H-pyrazolo[4,3-c]pyridine] yielded an IC50 in test [1] of 50 to 100 nM. The compound also yielded an inhibition in test [2] of 98%.

Compound `COc1ncnc(C2CC2)c1-c1nn(C)c2c1CN(c1ccc(-c3nc(C(F)(F)F)cn3C)cn1)CC2C` (centres unmarked) [Compound 40, 3-(4-cyclopropyl-6-methoxypyrimidin-5-yl)-1,7-dimethyl-5-(5-(1-methyl-4-(trifluoromethyl)-1H-imidazol-2-yl)pyridin-2-yl)-4,5,6,7-tetrahydro-1H-pyrazolo[4,3-c]pyridine] showed an IC50 in test [1] of 50 to 100 nM. The inhibition in test [2] worked out at 97%.

On to `COc1ncnc(C2CC2)c1-c1nn(C)c2c1CN(c1ccc(-c3nc(C(F)(F)F)cn3C)cc1)CC2(C)C` [Compound 41, 3-(4-cyclopropyl-6-methoxypyrimidin-5-yl)-1,7,7-trimethyl-5-(4-(1-methyl-4-(trifluoromethyl)-1H-imidazol-2-yl)phenyl)-4,5,6,7-tetrahydro-1H-pyrazolo[4,3-c]pyridine], for which the 50% inhibitory concentration (IC50) in test [1] is below 50 nM. For the same compound, the inhibition in test [2] is 100%.

As for `COc1ncnc(C2CC2)c1-c1nn(C)c2c1CN(c1ccc(-c3nc(C(F)(F)F)cn3C)nc1)CC2(C)C` [Compound 42, 3-(4-cyclopropyl-6-methoxypyrimidin-5-yl)-1,7,7-trimethyl-5-(6-(1-methyl-4-(trifluoromethyl)-1H-imidazol-2-yl)pyridin-3-yl)-4,5,6,7-tetrahydro-1H-pyrazolo[4,3-c]pyridine], the IC50 in test [1] fell in the range of 50 to 100 nM. For the same compound, the inhibition in test [2] worked out at 96%.

In the case of `COc1ncnc(C2CC2)c1-c1nn(C)c2c1CN(c1ccc(-c3nc(C(F)(F)F)cn3C)cn1)CC2(C)C` [Compound 43, 3-(4-cyclopropyl-6-methoxypyrimidin-5-yl)-1,7,7-trimethyl-5-(5-(1-methyl-4-(trifluoromethyl)-1H-imidazol-2-yl)pyridin-2-yl)-4,5,6,7-tetrahydro-1H-pyrazolo[4,3-c]pyridine], in test [1], the IC50 is 50 to 100 nM. In test [2], this compound registered an inhibition of 98%.

The compound `COc1ncnc(C2CC2)c1-c1nn(C)c2c1CN(c1ccc(-c3nc(C(F)(F)F)cn3C)c(F)c1)CC2` [Compound 44, 3-(4-cyclopropyl-6-methoxypyrimidin-5-yl)-5-(3-fluoro-4-(1-methyl-4-(trifluoromethyl)-1H-imidazol-2-yl)phenyl)-1-methyl-4,5,6,7-tetrahydro-1H-pyrazolo[4,3-c]pyridine] gave an IC50 in test [1] below 50 nM. Also, the inhibition in test [2] was 100%.

`COc1ncnc(C2CC2)c1-c1nn(C)c2c1CN(c1ccc(-c3nc(C(F)(F)F)cn3C)c(Cl)c1)CC2` [Compound 45, 5-(3-chloro-4-(1-methyl-4-(trifluoromethyl)-1H-imidazol-2-yl)phenyl)-3-(4-cyclopropyl-6-methoxypyrimidin-5-yl)-1-methyl-4,5,6,7-tetrahydro-1H-pyrazolo[4,3-c]pyridine] had a concentration for half-maximal inhibition (IC50) in test [1] below 50 nM. Also, in test [2], the inhibition was found to be 98%.

As to `COc1cc(N2CCc3c(c(-c4c(OC)ncnc4C4CC4)nn3C)C2)ccc1-c1nc(C(F)(F)F)cn1C` [Compound 46, 3-(4-cyclopropyl-6-methoxypyrimidin-5-yl)-5-(3-methoxy-4-(1-methyl-4-(trifluoromethyl)-1H-imidazol-2-yl)phenyl)-1-methyl-4,5,6,7-tetrahydro-1H-pyrazolo[4,3-c]pyridine], in test [1], the IC50 was 50 to 100 nM. Moreover, the inhibition in test [2] was 96%.
